Assay [1] deals with D-dimer. The experiment in a line: D-dimer level in blood of hypertensive patients treated with quercetin. The assay is classed as in vivo, humans. From the text:
As mentioned above, PDI plays a critical role in the initiation of the coagulation cascade. By blocking this critical enzyme activity, quercetin can prevent thrombus formation. The antithrombotic activity of quercetin can be evaluated in humans by measuring D-dimer levels in plasma samples from patients treated with quercetin. D-dimer, a small protein fragment present in the blood, is a fibrin degradation product. The level of D-dimer in the blood increases after a thrombotic event due to its release from blood clots via fibrinolysis. […] Hypertensive patients are prone to thrombotic events.

For assay [2] the following is noted: hypertensive patients; cited from earlier work.
The subject of assay [3] is platelet aggregation. Conditions: in vitro; cited from earlier work.

Regarding `O=c1c(O)c(-c2ccc(O)c(O)c2)oc2cc(O)cc(O)c12` [Quercetin, quercetin], in assay [1], the “level of D-dimer in blood” value is reported as “reduction in the level of D-dimer”. Moreover, the blood pressure entry in assay [2] was “reduce blood pressure”. Further, the platelet aggregation result in assay [3] was “inhibit platelet aggregation”.

The record behind these values is patent US10391096B2, “Method for treating thrombotic disorders using quercetin-containing compositions” (Quercegen Pharmaceuticals LLC, priority 2011, dated 2019).
